Here are results for 17 compounds from patent US10189813B2, “Formylated N-heterocyclic derivatives as FGFR4 inhibitors” (NOVARTIS AG, priority 2015, dated 2019).

Molecules are shown by their SMILES. Read-outs that look alike come from different tables or passages of the source.

The target in assay [1] is T1, FGFR4 (GST-FGFR4(388-802)) (Homo sapiens, UniProt P22455).
T1 construct: GST-FGFR4(388-802); GST (N); made in house; host or cells: insect cells
Briefly: In-vitro biochemical kinase assay for FGFR4 (Caliper mobility shift). The note with it: 60 minutes at 30° C. As for the experimental part: In-Vitro Biochemical Kinase Assays for FGFR4
All assays were performed in 384 well microtiter plates. Each assay plate contained 8-point serial dilutions for 40 test compounds, as well as four 8-point serial dilutions of staurosporine as reference compound, plus 16 high and 16 low controls.
(§1) Liquid handling and incubation steps were done on an Innovadyne Nanodrop Express equipped with a robotic arm (Thermo CatX, Caliper Twister II) and an incubator (Liconic STX40, Thermo Cytomat 2C450). The assay plates were prepared by addition of 50 nI per well of compound solution in 90% DMSO. […] Kinase reactions were incubated at 30° C. for 60 minutes and subsequently terminated by addition of 16 μl per well of stop solution (100 mM HEPES pH 7.5, 5% DMSO, 0.1% Caliper coating reagent, 10 mM EDTA, and 0.015% Brij35). Plates with terminated kinase reactions were transferred to the Caliper LC3000 workstations for reading. Phosphorylated and unphosphorylated peptides were separated using the Caliper microfluidic mobility shift technology. Briefly, samples from terminated kinase reactions were applied to the chip. Analytes are transported through the chip by constant buffer flow and the migration of the substrate peptide is monitored by the fluorescence signal of its label. Phosphorylated peptide (product) and unphosphorylated peptide (substrate) are separated in an electric field by their charge/mass ratio. Kinase activities were calculated from the amounts of formed phospho-peptide. IC50 values were determined from percent inhibition values at different compound concentrations by non-linear regression analysis.
Preparation of Compound Dilutions
Test compounds were dissolved in DMSO (10 mM) and transferred into 1.4 mL flat bottom or V-shaped Matrix tubes carrying a unique 2D matrix. The stock solutions were stored at […] if not used immediately. For the test procedure the vials were defrosted and identified by a scanner whereby a working sheet was generated that guided the subsequent working steps.
Compound dilutions were made in 96 well plates. This format enabled the assay of maximally 40 individual test compounds at 8 concentrations (single points) including 4 reference compounds. The dilution protocol included the production of “pre-dilution plates”, “master plates” and “assay plates”.
96 polypropylene well plates were used as pre-dilution plates. A total of 4 pre-dilution plates were prepared including 10 test compounds each on the plate positions A1-A10, one standard compound at A11 and one DMSO control at A12. All dilution steps were done on a HamiltonSTAR robot.
These plates were used directly for the assay which was performed in a total volume of 9.05 μL.

Assay [2] deals with BaF3-Tel-FGFR4 cells (TEL fused to cytoplasmic domain of FGFR4) (Homo sapiens, UniProt P22455). Briefly: In vitro cellular kinase assay for FGFR4 (BaF3-Tel-FGFR4, MSD capture ELISA of tyrosine phosphorylation). The conditions noted are these: 1 hour incubation. (In general: ELISA stands for enzyme-linked immunosorbent assay.)
Assay [3] deals with HuH-7 hepatocellular carcinoma cells. As to the kind of experiment: CellTiter Glo (CTG) proliferation/viability assay. The assay is classed as cell-based. The conditions noted are these: HuH-7 cells, 3 days, half-maximal growth inhibition (GI50), read-out: HUH7 proliferation CTG. As for the experimental part: CellTiter Glo (CTG) Assay:
The functional effect of compounds on cell proliferation is assessed using HuH-7 hepatocellular carcinoma cells obtained from the Japanese Collection of Research Bioresources Cell Bank (Cat# JCRB0403) and cultured in the vendor-recommended medium (DMEM high glucose (Amimed Cat#1-26F01-I), 10% foetal calf serum (Invitrogen Cat#16140-071), 1 mM sodium pyruvate (Amimed Cat#5-60F00-H), 1× Penicillin/Streptomycin (Amimed Cat#4-01F00-H)) at 37° C. in a humidified 5% CO2 incubator. Compound-mediated suppression of cell proliferation/viability is assessed by quantification of cellular ATP levels using the CellTiter-Glo (CTG) reagent (Promega, Cat# G7573). Briefly, cells are seeded at 3′000 cells/well/80 μl fresh medium into tissue-culture-treated 96-well plates (Costar Cat#3904), followed by addition of 20 μl medium containing compound dilutions at 5-fold their final intended concentration. Dose-response effects are assessed by 3-fold serial dilutions of the test compound, starting at 10 μM. Following incubation of the cells for 3 days at 37° C. and 5% CO2, the effect of inhibitors on cell viability is quantified following addition of 50 μl CTG and luminescence measurement (integration time: 500 ms) as per vendor manual, using a correspondingly equipped multi-mode plate reader (M200Pro, TECAN, Switzerland). For data analysis, the assay background value determined in wells containing medium, but no cells, is subtracted from all data points. To enable differentiation of cytotoxic from cytostatic compounds, the number of viable cells is assessed relative to that observed at the time of compound addition using a separate cell plate (day 0). The effect of a particular test compound concentration on cell proliferation/viability is expressed as percentage of the background- and day 0-corrected luminescence reading obtained for cells treated with vehicle only (DMSO, 0.1% f.c.), which is set as 100%, whereas the luminescence reading for wells containing medium only, but no cells, is set as −100%. Compound concentrations leading to half-maximal growth inhibition (GI50) are determined using standard four parameter curve fitting (XLfit 5.2., IDBS, UK).
On the technique in general: Cellular ATP, detected with luciferase, serves as a proxy for viable cell number.

Assay [4] concerns the target T2, FGFR1 (407-822) (Homo sapiens, UniProt P11362).
T2 construct: FGFR1 (407-822)
Briefly: In vitro biochemical assay for FGFR1. As for the experimental part:
as §1
(§2) In vitro biochemical assays for FGFR1 (407-822), FGFR2 (406-821) and FGFR3 (411-806) were conducted in a similar manner to the in vitro biochemical assay for FGFR4 described above, using the indicated portions of the kinase domains. The following examples all produced IC50 values >10000 nM in the biochemical FGFR1, FGFR2 and FGFR3 assays: 2, 3, 4, 11, 13, 16, 17, 18, 20, 28, 30.

Assay [5] addresses T3, FGFR2 (406-821) (Homo sapiens, UniProt P21802).
T3 construct: FGFR2 (406-821)
As to the kind of experiment: In vitro biochemical assay for FGFR2. As for the experimental part: as §1, §2

Assay [6] concerns the target T4, FGFR3 (411-806) (Homo sapiens, UniProt P22607).
T4 construct: FGFR3 (411-806)
As to the kind of experiment: In vitro biochemical assay for FGFR3. As for the experimental part: as §1, §2

Chain of BaF3-Tel-FGFR4 cells (TEL fused to cytoplasmic domain of FGFR4) (P22455 with tags, fused parts or gaps): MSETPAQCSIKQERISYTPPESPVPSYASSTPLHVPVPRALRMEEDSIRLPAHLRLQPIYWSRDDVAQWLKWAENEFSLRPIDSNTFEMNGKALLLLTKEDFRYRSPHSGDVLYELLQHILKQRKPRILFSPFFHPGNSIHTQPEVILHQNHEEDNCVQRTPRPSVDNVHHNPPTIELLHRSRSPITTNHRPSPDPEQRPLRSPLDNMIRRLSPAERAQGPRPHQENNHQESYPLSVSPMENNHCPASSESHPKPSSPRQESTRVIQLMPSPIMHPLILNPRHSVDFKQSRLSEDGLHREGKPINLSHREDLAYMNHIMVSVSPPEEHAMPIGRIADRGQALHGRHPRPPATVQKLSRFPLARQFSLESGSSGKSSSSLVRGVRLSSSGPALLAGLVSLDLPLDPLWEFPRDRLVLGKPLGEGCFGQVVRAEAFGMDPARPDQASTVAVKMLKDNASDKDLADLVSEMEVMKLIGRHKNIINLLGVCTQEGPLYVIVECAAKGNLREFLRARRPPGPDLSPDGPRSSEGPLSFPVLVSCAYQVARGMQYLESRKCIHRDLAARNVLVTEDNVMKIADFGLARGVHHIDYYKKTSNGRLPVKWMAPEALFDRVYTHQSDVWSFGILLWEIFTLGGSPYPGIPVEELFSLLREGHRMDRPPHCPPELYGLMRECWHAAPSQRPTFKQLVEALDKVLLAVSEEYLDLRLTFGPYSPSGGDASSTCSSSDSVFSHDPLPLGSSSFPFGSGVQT
T1 sequence (P22455 388-802): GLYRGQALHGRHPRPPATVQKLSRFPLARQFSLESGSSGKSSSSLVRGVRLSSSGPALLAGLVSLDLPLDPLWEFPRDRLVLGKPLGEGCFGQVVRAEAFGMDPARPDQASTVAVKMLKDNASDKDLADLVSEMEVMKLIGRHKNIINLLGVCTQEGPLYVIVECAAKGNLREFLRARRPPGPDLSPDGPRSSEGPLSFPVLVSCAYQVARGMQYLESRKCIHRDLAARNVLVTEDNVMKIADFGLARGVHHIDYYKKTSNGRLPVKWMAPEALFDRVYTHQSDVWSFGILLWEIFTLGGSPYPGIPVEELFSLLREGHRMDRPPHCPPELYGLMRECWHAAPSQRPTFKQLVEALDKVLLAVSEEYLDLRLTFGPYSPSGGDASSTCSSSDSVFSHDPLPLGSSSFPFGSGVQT
T4 sequence (P22607 411-806): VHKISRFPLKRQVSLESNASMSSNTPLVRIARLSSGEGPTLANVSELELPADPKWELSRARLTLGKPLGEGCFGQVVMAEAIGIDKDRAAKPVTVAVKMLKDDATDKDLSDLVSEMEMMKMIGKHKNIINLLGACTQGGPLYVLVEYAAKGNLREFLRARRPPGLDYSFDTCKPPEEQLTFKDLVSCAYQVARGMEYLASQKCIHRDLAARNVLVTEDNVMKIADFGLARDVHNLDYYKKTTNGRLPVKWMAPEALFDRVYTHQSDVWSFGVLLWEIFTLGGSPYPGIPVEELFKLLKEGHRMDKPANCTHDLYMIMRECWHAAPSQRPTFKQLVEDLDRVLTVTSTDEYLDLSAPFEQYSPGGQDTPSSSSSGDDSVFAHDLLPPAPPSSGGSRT
T3 sequence (P21802 406-821): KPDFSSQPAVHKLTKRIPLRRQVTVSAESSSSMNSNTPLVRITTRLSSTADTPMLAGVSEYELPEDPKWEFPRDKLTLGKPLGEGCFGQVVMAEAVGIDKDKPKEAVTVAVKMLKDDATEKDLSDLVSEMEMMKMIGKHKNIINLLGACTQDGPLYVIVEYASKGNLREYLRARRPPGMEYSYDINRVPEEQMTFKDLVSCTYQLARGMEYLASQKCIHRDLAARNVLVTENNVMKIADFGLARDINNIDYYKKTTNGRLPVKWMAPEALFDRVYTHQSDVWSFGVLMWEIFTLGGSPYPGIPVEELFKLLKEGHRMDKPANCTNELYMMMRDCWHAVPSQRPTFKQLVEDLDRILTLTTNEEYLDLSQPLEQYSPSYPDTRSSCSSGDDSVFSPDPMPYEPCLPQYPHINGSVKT
T2 sequence (P11362 407-822): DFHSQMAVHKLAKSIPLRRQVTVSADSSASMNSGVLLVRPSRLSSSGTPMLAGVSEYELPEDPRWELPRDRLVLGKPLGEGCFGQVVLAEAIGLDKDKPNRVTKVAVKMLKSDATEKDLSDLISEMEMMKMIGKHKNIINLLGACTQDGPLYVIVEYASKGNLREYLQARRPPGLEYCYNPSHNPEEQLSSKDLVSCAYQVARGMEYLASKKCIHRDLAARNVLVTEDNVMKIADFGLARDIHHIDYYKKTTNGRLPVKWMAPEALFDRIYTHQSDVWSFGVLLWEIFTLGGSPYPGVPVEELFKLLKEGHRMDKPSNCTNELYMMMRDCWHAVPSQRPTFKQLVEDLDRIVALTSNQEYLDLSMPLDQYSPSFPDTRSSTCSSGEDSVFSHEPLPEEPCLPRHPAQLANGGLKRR

For `COCCNc1cc(NC(=O)N(CC2CCOC2)c2ccc(CO)c(C=O)n2)ncc1C#N` (racemic) [Example 5, 3-(5-cyano-4-((2-methoxyethyl)amino)pyridin-2-yl)-1-(6-formyl-5-(hydroxymethyl)pyridin-2-yl)-1-((tetrahydrofuran-3-yl)methyl)urea], the IC50 in assay [1] is 66 nM; in assay [2], 234 nM.
In the case of `COC1CCN(Cc2ccc(N(C)C(=O)Nc3cc(OC(C)C)c(C#N)cn3)nc2C=O)C1` (racemic) [Example 26, 3-(5-cyano-4-isopropoxypyridin-2-yl)-1-(6-formyl-5-((3-methoxypyrrolidin-1-yl)methyl)pyridin-2-yl)-1-methylurea], the IC50 in assay [1] is 17 nM; in assay [3] (Homo sapiens, Huh-7, 72 h), more than 3000 nM; in assay [2] it was 501 nM.
As to `COCCNc1cc(NC(=O)N(C[C@@H]2CCOC2)c2cccc(C=O)n2)ncc1C#N` (single isomer, unassigned) [Example 6], the results for the IC50 in assay [1] and in assay [2] were 4.7 nM and 140 nM, respectively.
Regarding `COCCNc1cc(NC(=O)N(C[C@H]2CCOC2)c2cccc(C=O)n2)ncc1C#N` (single isomer, unassigned) [Example 7], the figures for the IC50 in assay [1] and in assay [2] were 5.1 nM and 223 nM, respectively.
As for `N#Cc1ccc(Nc2ccccc2-c2cccc(C=O)n2)nc1` [Example 1, 6-((2-(6-formylpyridin-2-yl)phenyl)amino)nicotinonitrile], in assay [1], the IC50 came out at 330 nM.
Regarding `COCCNc1cc(NC(=O)N(C)c2cccc(C=O)n2)ncc1C#N` [Example 2, 3-(5-cyano-4-((2-methoxyethyl)amino)pyridin-2-yl)-1-(6-formylpyridin-2-yl)-1-methylurea], the IC50 in assay [4], in assay [5] and in assay [6] was more than 10000 nM each time.
Take `COCCNc1cc(NC(=O)N(CCOC)c2cccc(C=O)n2)ncc1C#N` [Example 3, 3-(5-cyano-4-((2-methoxyethyl)amino)pyridin-2-yl)-1-(6-formylpyridin-2-yl)-1-(2-methoxyethyl)urea]: the IC50 in assay [4], in assay [5] and in assay [6] was more than 10000 nM throughout.
`CC(C)Oc1cc(NC(=O)N(C)c2ccc(C(=O)O)c(C=O)n2)ncc1C#N` [Example 8, 6-(3-(5-cyano-4-isopropoxypyridin-2-yl)-1-methylureido)-2-formylnicotinic acid]: the figures for the IC50 in assay [1] and in assay [2] were 1.6 nM and 737 nM, respectively.
For the compound `CCN(C(=O)Nc1cc(OC(C)C)c(C#N)cn1)c1ccc(-c2cnn(C)c2)c(C=O)n1` [Example 12, 3-(5-cyano-4-isopropoxypyridin-2-yl)-1-ethyl-1-(6-formyl-5-(1-methyl-1H-pyrazol-4-yl)pyridin-2-yl)urea], the IC50 worked out at 8.6 nM in assay [1]; 2140 nM in assay [3] (Homo sapiens, Huh-7, 72 h); 33 nM in assay [2].
As for `CC(C)Nc1cc(NC(=O)N(C)c2ccc(-c3cnn(C)c3)c(C=O)n2)ncc1C#N` [Example 14, 3-(5-cyano-4-(isopropylamino)pyridin-2-yl)-1-(6-formyl-5-(1-methyl-1H-pyrazol-4-yl)pyridin-2-yl)-1-methylurea], the IC50 in assay [1] was determined as 3.6 nM.
Take `CN(C(=O)Nc1ccc(C#N)cn1)c1ccc(CN2CCCC2=O)c(C=O)n1` [Example 19, 3-(5-cyanopyridin-2-yl)-1-(6-formyl-5-((2-oxopyrrolidin-1-yl)methyl)pyridin-2-yl)-1-methylurea]: the IC50 in assay [1] worked out at 78 nM.
In the case of `CC(C)Oc1cc(NC(=O)N(C)c2ccc(CN3CCN(C)CC3=O)c(C=O)n2)ncc1C#N` [Example 21, 3-(5-cyano-4-isopropoxypyridin-2-yl)-1-(6-formyl-5-((4-methyl-2-oxopiperazin-1-yl)methyl)pyridin-2-yl)-1-methylurea], the IC50 in assay [1] stood at 4.8 nM; in assay [3] (Homo sapiens, Huh-7, 72 h), 878 nM; in assay [2] it was 6.9 nM.
As to `CN(C(=O)Nc1cc(NCC(C)(C)O)c(C#N)cn1)c1ccc(-c2cnn(C)c2)c(C=O)n1` [Example 22, 3-(5-cyano-4-((2-hydroxy-2-methylpropyl)amino)pyridin-2-yl)-1-(6-formyl-5-(1-methyl-1H-pyrazol-4-yl)pyridin-2-yl)-1-methylurea], the IC50 in assay [1] was 5.7 nM; in assay [3] (Homo sapiens, Huh-7, 72 h), more than 3000 nM; in assay [3], 1800 nM; in assay [2], 46 nM.
As for `CC(C)Oc1cc(NC(=O)N(C)c2ccc(CN3CCCC3=O)c(C=O)n2)ncc1C#N` [Example 23, 3-(5-cyano-4-isopropoxypyridin-2-yl)-1-(6-formyl-5-((2-oxopyrrolidin-1-yl)methyl)pyridin-2-yl)-1-methylurea], the IC50 came to 0.7 nM in assay [1]; 118 nM in assay [3] (Homo sapiens, Huh-7, 72 h); 8.8 nM in assay [2].
`CC(C)Oc1cc(NC(=O)N(C)c2ccc(-c3cnn(C)c3)c(C=O)n2)ncc1C#N` [Example 25, 3-(5-cyano-4-isopropoxypyridin-2-yl)-1-(6-formyl-5-(1-methyl-1H-pyrazol-4-yl)pyridin-2-yl)-1-methylurea]: the IC50 in assay [1] was found to be 6.3 nM.
Turning to `COCCNc1cc(Nc2nccn2-c2ccc(-c3cnn(C)c3)c(C=O)n2)ncc1C(F)(F)F` [Example 27, 6-(2-((4-((2-methoxyethyl)amino)-5-(trifluoromethyl)pyridin-2-yl)amino)-1H-imidazol-1-yl)-3-(1-methyl-1H-pyrazol-4-yl)picolinaldehyde], the IC50 is 340 nM in assay [1]; more than 3000 nM in assay [3] (Homo sapiens, Huh-7, 72 h); 568 nM in assay [2].
Taken in the same sequence, the figures for `CC(C)Oc1cc(NC(=O)N(C)c2ccc(CN3CCCC3)c(C=O)n2)ncc1C#N` [Example 29, 3-(5-cyano-4-isopropoxypyridin-2-yl)-1-(6-formyl-5-(pyrrolidin-1-ylmethyl)pyridin-2-yl)-1-methylurea] were 250 nM, more than 3000 nM and more than 3000 nM.
